Here are results for seven compounds from ChEMBL document CHEMBL1130687, “Synthesis and morphological reversion activity on srctsNRK cells of pyrimidinylpropanamide antibiotics, sparsomycin, sparoxomycin A1, A2, and their analogues” (1998).

For this assay, the system named is NRK. The assay can be described thus: Compound was tested for its morphological reversion activity on srctsNRK cells. The format is functional. As to conditions: Rattus norvegicus, read-out: MEC.

Turning to `COCOC[C@@H](C[S+]([O-])CSC)NC(=O)/C=C/c1c(C)nc(O)nc1O` (some centres not stated), the minimal effective concentration came out at 60 µM.
Turning to `Cc1nc(O)nc(O)c1/C=C/C(=O)N[C@@H](CO)C[S+]([O-])C[S+](C)[O-]` (some centres not stated), the minimal effective concentration was found to be 530 µM.
For the compound `Cc1nc(O)nc(O)c1/C=C/C(=O)N[C@H](CO)C[S+]([O-])C[S+](C)[O-]` (some centres not stated), the minimal effective concentration is 530 µM.
Turning to `CCSC[S+]([O-])C[C@H](CO)NC(=O)/C=C/c1c(C)nc(O)nc1O` (some centres not stated), the minimal effective concentration turned out to be 20 µM.
Next, `CCC(C)SC[S+]([O-])C[C@H](CO)NC(=O)/C=C/c1c(C)nc(O)nc1O` (some centres not stated): 180 µM.
Regarding `CSC[S+]([O-])C[C@H](CO)NC(=O)/C=C/c1c(C)[nH]c(=O)[nH]c1=O` (some centres not stated), the minimal effective concentration was 6.5 µM.
`CCCCSC[S+]([O-])C[C@H](CO)NC(=O)/C=C/c1c(C)nc(O)nc1O` (some centres not stated): the minimal effective concentration is 60 µM.
